Data from patent publication US11028113B2, “Cyphomycin, compositions and uses thereof” (Wisconsin Alumni Research Foundation, priority 2018, dated 2021).
≈ marks a conversion by molar mass, not a printed value.

What was measured:
Assay type in all cases: cell-based
Candida glabrata 4720 = assay: In vitro MIC susceptibility testing, broth microdilution (CLSI M27-A3); conditions: Nakaseomyces glabratus; Candida glabrata 4720, Echinocandin resistance phenotype; 50% reduction in growth turbidity at 600 nm; median of replicate assays; read-out: Cyphomycin MIC
Procedure: (§1) In vitro MIC susceptibility testing. MICs of Cyphomycin for the Candida isolates were determined using a broth microdilution method in accordance with the guidelines presented in Clinical and Laboratory Standards Institute (CLSI) document M27-A3 for Candida and M38-A2 for Aspergillus^36,38. MIC values of cyphomycin were defined as the lowest concentration at which a prominent decrease in growth turbidity (i.e., 50% reduction in growth determined spectrophotometrically) relative to the turbidity of the compound-free control at 600 nm was observed. Median MIC from replicate assays is reported. Results are shown in Table 1 for cyphomycin activity against drug-resistant fungi.

Candida auris B11211 = assay: as above; conditions: Candidozyma auris; Candida auris B11211, Amphotericin B resistance phenotype; 50% reduction in growth turbidity at 600 nm; median of replicate assays; read-out: Cyphomycin MIC
Procedure: as §1

[1] = test system: Aspergillus fumigatus 11628; assay: In vitro MIC susceptibility testing, broth microdilution (CLSI M38-A2); conditions: Aspergillus fumigatus 11628, Triazole resistance phenotype; 50% reduction in growth turbidity at 600 nm; median of replicate assays; read-out: Cyphomycin MIC
Procedure: as §1

Compound: CCC(OC1CC(C)(O)C(OC2CCC(OC(=O)C(C)C(O)c3ccc4c(c3)C(=O)C=C(C)C4=O)C(C)O2)C(C)O1)C(C)C(O)C(C)C(O)C(C)C1OC(=O)/C=C/C(C)C(O)CC(O)CCCC(O)CCC(C)C(O)C(=O)C2(O)CC(O)CC(CC(O)CC(O)CC(O)CCCC(O)/C=C/C1C)O2 (stereo not drawn) [Cyphomycin, cyphomycin]
- MIC (Candida glabrata 4720): 0.5 µg/mL (≈ 0.342 µM)
- MIC (Candida auris B11211): 4 µg/mL (≈ 2.73 µM)
- MIC [1]: 0.5 µg/mL (≈ 0.342 µM)
